Source: ChEMBL document CHEMBL4831514, “Novel betulin dicarboxylic acid ester derivatives as potent antiviral agents: Design, synthesis, biological evaluation, structure-activity relationship and in-silico study” (Eur J Med Chem, 2021)
The source made the active and inactive calls. No cut-off for these calls is given here.

Assays:
[1] = system: A549; assay: Cytotoxicity against human A549 cells assessed as reduction in cell viability incubated for 48 hrs by MTT assay; type: cell-based; settings: a549, 48 h
[2] = system: MDCK; assay: Cytotoxicity against MDCK cells assessed as reduction in cell viability incubated for 72 hrs by MTT assay; type: cell-based, Canis lupus familiaris; settings: dog, mdck, 72 h
[3] = system: Human alphaherpesvirus 1; assay: Antiviral activity against Human herpesvirus-1 MacIntyre infected in A549 cells assessed as inhibition of viral adsorption at early stage of replication treated for 1 hr during viral infection followed by replacement with fresh medium and measured after 48 hrs by MTT assay; type: functional, organism-based
[4] = system: Enterovirus E; assay: Antiviral activity against Enterovirus E LCR-4 infected in A549 cells assessed as inhibition of viral adsorption at early stage of replication treated for 1 hr during viral infection followed by replacement with fresh medium and measured after 72 hrs by MTT assay; type: functional, organism-based
[5] = system: Human adenovirus 5; assay: Antiviral activity against Human adenovirus 5 Adenoid 75 infected in A549 cells assessed as inhibition of viral adsorption at early stage of replication treated for 1 hr during viral infection followed by replacement with fresh medium and measured after 72 hrs by MTT assay; type: functional, organism-based
[6] = system: Vesicular stomatitis virus; assay: Antiviral activity against Vesicular stomatitis virus Indiana infected in A549 cells assessed as reduction in virus titer preincubated for 24 hrs followed by viral infection and measured after 72 hrs by microscopic analysis; type: functional, organism-based
[7] = system: Human alphaherpesvirus 1; assay: Antiviral activity against Human herpesvirus 1 MacIntyre infected in A549 cells assessed as reduction in virus titer preincubated for 24 hrs followed by viral infection and measured after 72 hrs by microscopic analysis; type: functional, organism-based
[8] = system: Human adenovirus 5; assay: Antiviral activity against Human adenovirus 5 Adenoid 75 infected in A549 cells assessed as reduction in virus titer preincubated for 24 hrs followed by viral infection and measured after 72 hrs by microscopic analysis; type: functional, organism-based

Structure (SMILES) | CC20 [1] [µM] | CC20 [2] [µM] | Activity [3] | Activity [4] | Activity [5] | Activity [6] | Activity [7] | Activity [8]
C=C(C)[C@@H]1CC[C@]2(COC(=O)CCC(=O)N3CCCCC3)CC[C@]3(C)[C@H](CC[C@@H]4[C@@]5(C)CCC(O)C(C)(C)[C@@H]5CC[C@]43C)[C@@H]12 (single isomer, unassigned) | 69.83 | 17.46 | inactive | inactive | inactive | inactive | inactive | inactive
C=C(C)[C@@H]1CC[C@]2(COC(=O)CCCC(=O)N3CCSCC3)CC[C@]3(C)[C@H](CC[C@@H]4[C@@]5(C)CC[C@H](O)C(C)(C)[C@@H]5CC[C@]43C)[C@@H]12 | 122.7 | 61.35 | inactive | inactive | inactive | inactive | inactive | inactive
C#CC1(NC(=O)CCC(=O)OC[C@]23CC[C@@H](C(=C)C)[C@@H]2[C@H]2CC[C@@H]4[C@@]5(C)CC[C@H](O)C(C)(C)[C@@H]5CC[C@@]4(C)[C@]2(C)CC3)CCCCC1 | 110.38 | 0.77 | inactive | inactive | inactive | inactive | inactive | inactive
Nc1ccn(C[C@@H](CO)OCP(=O)(O)O)c(=O)n1.O.O [CIDOFOVIR] | 358.42 |  | inactive | inactive | inactive |  |  | 
C#CC1(NC(=O)c2ccccc2C(=O)OC[C@]23CC[C@@H](C(=C)C)[C@@H]2[C@H]2CC[C@@H]4[C@@]5(C)CC[C@H](O)C(C)(C)[C@@H]5CC[C@@]4(C)[C@]2(C)CC3)CCCCC1 | 109.82 | 1.57 | inactive | inactive | inactive | inactive | inactive | inactive
C=C(C)[C@@H]1CC[C@]2(COC(=O)c3cccc(C(=O)O)c3)CC[C@]3(C)[C@H](CC[C@@H]4[C@@]5(C)CC[C@H](O)C(C)(C)[C@@H]5CC[C@]43C)[C@@H]12 | 21.15 | 42.3 | inactive | inactive | inactive | inactive | inactive | inactive
C=C(C)[C@@H]1CC[C@]2(COC(=O)c3cccc(C(=O)N4CCSCC4)c3)CC[C@]3(C)[C@H](CC[C@@H]4[C@@]5(C)CC[C@H](O)C(C)(C)[C@@H]5CC[C@]43C)C12 (single isomer, unassigned) | 117.79 | 117.79 | inactive | inactive | inactive | inactive | inactive | inactive
C=C(C)[C@@H]1CC[C@]2(COC(=O)/C=C(\C)C(=O)O)CC[C@]3(C)[C@H](CC[C@@H]4[C@@]5(C)CC[C@H](O)C(C)(C)[C@@H]5CC[C@]43C)[C@@H]12 | 11.26 | 5.63 | inactive | inactive | inactive | inactive | inactive | inactive
C=C(C)[C@@H]1CC[C@]2(COC(=O)/C=C(\C)C(=O)N3CCSCC3)CC[C@]3(C)[C@H](CC[C@@H]4[C@@]5(C)CC[C@H](O)C(C)(C)[C@@H]5CC[C@]43C)[C@@H]12 | 61.5 | 61.5 | inactive | inactive | inactive | inactive | inactive | inactive
C=C(C)[C@@H]1CC[C@]2(COC(=O)CCC(=O)O)CC[C@]3(C)[C@H](CC[C@@H]4[C@@]5(C)CCC(O)C(C)(C)[C@@H]5CC[C@]43C)[C@@H]12 (single isomer, unassigned) | 11.51 | 11.51 | inactive | inactive | inactive | inactive | inactive | inactive
C#CCNC(=O)CCC(=O)OC[C@]12CC[C@@H](C(=C)C)C1[C@H]1CC[C@@H]3[C@@]4(C)CC[C@H](O)C(C)(C)[C@@H]4CC[C@@]3(C)[C@]1(C)CC2 (single isomer, unassigned) | 10.78 | 5.34 | inactive | inactive | inactive | inactive | inactive | inactive
C=C(C)[C@@H]1CC[C@]2(COC(=O)/C=C/C(=O)O)CC[C@]3(C)[C@H](CC[C@@H]4[C@@]5(C)CC[C@H](O)C(C)(C)[C@@H]5CC[C@]43C)[C@@H]12 | 11.55 | 5.73 | inactive | inactive | inactive | inactive | inactive | inactive
C#CCNC(=O)CCCCCCCCCC(=O)OC[C@]12CC[C@@H](C(=C)C)[C@@H]1[C@H]1CC[C@@H]3[C@@]4(C)CC[C@H](O)C(C)(C)[C@@H]4CC[C@@]3(C)[C@]1(C)CC2 | 38.46 | 153.85 | inactive | inactive | inactive | inactive | inactive | inactive
C=C(C)[C@@H]1CC[C@]2(COC(=O)CCC(=O)N3CCOCC3)CC[C@]3(C)[C@H](CC[C@@H]4[C@@]5(C)CC[C@H](O)C(C)(C)[C@@H]5CC[C@]43C)[C@@H]12 | 9.63 | 4.78 | inactive | inactive | inactive | inactive | inactive | inactive
C#CC1(NC(=O)c2cccc(C(=O)OC[C@]34CC[C@@H](C(=C)C)[C@@H]3[C@H]3CC[C@@H]5[C@@]6(C)CC[C@H](O)C(C)(C)[C@@H]6CC[C@@]5(C)[C@]3(C)CC4)c2)CCCCC1 | 104.82 | 104.82 | inactive | inactive | inactive | inactive | inactive | inactive
C=C(C)[C@@H]1CC[C@]2(COC(=O)c3cccc(C(=O)N4CCOCC4)c3)CC[C@]3(C)[C@H](CC[C@@H]4[C@@]5(C)CC[C@H](O)C(C)(C)[C@@H]5CC[C@]43C)[C@@H]12 | 71.74 | 143.47 | inactive | inactive | inactive | inactive | inactive | inactive
C=C(C)[C@@H]1CC[C@]2(COC(=O)c3ccccc3C(=O)O)CC[C@]3(C)[C@H](CC[C@@H]4[C@@]5(C)CC[C@H](O)C(C)(C)[C@@H]5CC[C@]43C)[C@@H]12 | 21.15 | 42.3 | inactive | inactive | inactive | inactive | inactive | inactive
C#CC1(NC(=O)CCCC(=O)OC[C@]23CCC(C(=C)C)[C@@H]2[C@H]2CC[C@@H]4[C@@]5(C)CC[C@H](O)C(C)(C)[C@@H]5CC[C@@]4(C)[C@]2(C)CC3)CCCCC1 (single isomer, unassigned) | 108.7 | 108.7 | inactive | inactive | inactive | inactive | inactive | inactive
C=C(C)[C@@H]1CC[C@]2(COC(=O)CCCCCCCCCC(=O)N3CCCCC3)CC[C@]3(C)[C@H](CC[C@@H]4[C@@]5(C)CC[C@H](O)C(C)(C)[C@@H]5CC[C@]43C)[C@@H]12 | 127.23 | 127.84 | inactive | inactive | inactive | inactive | inactive | inactive
C=C(C)[C@@H]1CCC2(COC(=O)CCCCCCCCCC(=O)N3CCSCC3)CC[C@]3(C)[C@H](CC[C@@H]4[C@@]5(C)CC[C@H](O)C(C)(C)[C@@H]5CC[C@]43C)[C@@H]12 (single isomer, unassigned) | 114.81 | 114.81 | inactive | inactive | inactive | inactive | inactive | inactive
